What all share (test): inhibition of tumour cell growth, NCI panel, 48 h
The subject of experiment [1] is IGROV1 ovarian.
Experiment [2] has as its system UACC-62 melanoma.
In experiment [3] the test system is K-562 leukemia.
Experiment [4] has as its system PC-3 prostate.
Experiment [5] concerns CCRF-CEM leukemia.
Experiment [6] deals with SF-268 CNS.
The test system of experiment [7] is RXF 393 renal.
Experiment [8] concerns HS 578T breast.
Experiment [9] concerns DU-145 prostate.
In experiment [10] the test system is SF-295 CNS.
For experiment [11], the system named is MDA-MB-231 breast.
In experiment [12] the test system is NCI-H522 lung.
The subject of experiment [13] is NCI-H460 lung.
The test system of experiment [14] is SN12C renal.
Experiment [15] deals with MDA-MB-435.
The subject of experiment [16] is SK-MEL-5 melanoma.
Experiment [17] concerns SW-620 colon.
In experiment [18] the test system is SR leukemia.
The subject of experiment [19] is OVCAR-3 ovarian.

Molecules are shown by their SMILES.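 Results reflect a 48-hour exposure of cells in 96-well plates to compound at five concentrations. TGI denotes the concentration required for complete inhibition of growth.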

With `O=[N+]1[C@H](c2ccccc2)[C@H](c2ccccc2)N1[O-]`, the TGI in [1] was 26.8 µM; in experiment [2], 32.3 µM; in [3] it was more than 100 µM; in experiment [4], 31.6 µM; in [5] it was 36.3 µM; in experiment [6], 58.7 µM. Moreover, the TGI in [7] was 28.3 µM; in experiment [8] it was more than 100 µM; in experiment [9], 30.1 µM; in experiment [10], 38.6 µM; in [11], 38.2 µM; in experiment [12], 24.2 µM. The TGI in experiment [13] is 43.2 µM; in experiment [14] it was 32.4 µM; in experiment [15], 34.3 µM; in experiment [16] it was 30.9 µM; in experiment [17] it was 28.2 µM; in [18], 37.7 µM. For the same compound, the TGI in experiment [19] is 30.1 µM.

For `O=C1Cc2cn[nH]c2-c2ccccc2N1`, the TGI in [1] is more than 100 µM; in experiment [2] it was 63.5 µM; in experiment [3] it was 56.6 µM; in [4], more than 100 µM; in experiment [5], 53.1 µM; in experiment [6], more than 100 µM. Further, the TGI in experiment [7] is 72.3 µM; in experiment [8] it was more than 100 µM; in [9] it was more than 100 µM; in experiment [10], more than 100 µM; in experiment [11], more than 62 µM; in experiment [12], 65.8 µM. In addition, the TGI in experiment [13] is more than 69.8 µM; in experiment [14], more than 63.9 µM; in [15], 59.7 µM; in experiment [16], more than 59.7 µM; in experiment [17], 32.4 µM; in experiment [18], 71.8 µM. This compound also registered a TGI in experiment [19] of 37.5 µM.

Consider `NC(=O)[N+](=CC(=S)Nc1ccccc1Cl)C(N)=O`, for which the TGI in [1], in [2], in [3], in experiment [4], in experiment [5] and in experiment [6] was more than 100 µM throughout. Besides, the TGI in experiment [7], in experiment [8], in experiment [9], in experiment [10], in experiment [11] and in experiment [12] was more than 100 µM each time. The TGI in experiment [13], in experiment [14], in [15], in [16], in [17] and in experiment [18] was more than 100 µM each time. Also, the TGI in [19] is more than 100 µM.

As to `COc1cc(OC)c2c(=O)c3cccc(C)c3n(C)c2c1`, the TGI is more than 100 µM in experiment [1]; more than 100 µM in experiment [2]; 59.4 µM in [3]; more than 100 µM in experiment [4]; more than 100 µM in [5]; more than 100 µM in experiment [6]. Moreover, the TGI in experiment [7], in [8], in experiment [9], in [10], in experiment [11] and in experiment [12] was more than 100 µM throughout. For the same compound, the TGI in experiment [13] was more than 100 µM; in [14] it was more than 100 µM; in experiment [15], more than 100 µM; in experiment [16], 60.6 µM; in experiment [17], more than 100 µM; in experiment [18] it was more than 100 µM. The compound further returned a TGI in experiment [19] of more than 100 µM.

With `CSc1nc(=O)cnn1C`, the TGI in experiment [1], in experiment [2], in experiment [3], in [4], in [5] and in [6] was more than 100 µM each time. Further, the TGI in experiment [7], in experiment [8], in experiment [9], in experiment [10], in experiment [11] and in [12] was more than 100 µM each time. The TGI in [13], in experiment [14], in experiment [15], in experiment [16], in [17] and in experiment [18] was more than 100 µM throughout. The TGI in [19] is more than 100 µM.

On to `COc1ccc(COCC[C@H](C)OC2OC(CO)C(O)C(O)C2O)cc1` (some centres not stated), for which the TGI in experiment [1], in experiment [2], in experiment [3], in [4], in [5] and in experiment [6] was more than 100 µM each time. Also, the TGI in experiment [7], in experiment [8], in [9], in experiment [10], in experiment [11] and in experiment [12] was more than 100 µM throughout. Besides, the TGI in experiment [13], in experiment [14], in experiment [15], in [16], in [17] and in experiment [18] was more than 100 µM throughout. Besides, the TGI in [19] was more than 100 µM.

As to `O=CNc1ccccc1OCCOc1ccccc1NC=O`, the TGI in [1], in experiment [2], in experiment [3], in experiment [4], in experiment [5] and in [6] was more than 100 µM each time. In addition, the TGI in experiment [7], in experiment [8], in experiment [9], in experiment [10], in experiment [11] and in experiment [12] was more than 100 µM in each case. Besides, the TGI in [13], in [14], in [15], in [16], in [17] and in experiment [18] was more than 100 µM throughout. The compound further registered a TGI in [19] of more than 100 µM.

Consider `O=C1NCN(c2ccccc2)C12CCN(CC1COc3ccccc3O1)CC2` (configuration not stated), for which the TGI in experiment [1], in [2], in experiment [3], in experiment [4], in experiment [5] and in experiment [6] was more than 100 µM each time. Besides, the TGI in experiment [7] was 96.5 µM; in experiment [8], 71.8 µM; in [9], more than 100 µM; in [10], more than 100 µM; in [11], more than 100 µM; in [12], more than 100 µM. Besides, the TGI in experiment [13], in [14], in [15], in experiment [16], in experiment [17] and in [18] was more than 100 µM each time. The TGI in experiment [19] was more than 100 µM.

These data come from PubChem BioAssay (NCI).
